# Reference: patent US20250304892A1, “APPARATUS, SYSTEM, AND METHOD FOR FORMING A PERTURBABLE BONE MARROW MODEL WITHIN A THREE-DIMENSIONAL MICROPHYSIOLOGICAL SYSTEM” (The Trustees of the University of Pennsylvania, priority 2022, published 2025)
# Legend:
# Assay type in all cases: cell-based, human
# [1] = tested on: micro-engineered bone marrow (MEBM) model; test: Mobilization of blood cells from the MEBM model on vascular perfusion with IL-8 or AMD3100
# Source text: When hormones, cytokines, and other soluble signals produced by peripheral tissues reach the bone marrow, they can induce mature blood cells in the hematopoietic niche to transmigrate across the sinusoidal endothelium and enter the bloodstream. This regulated release of blood cells into circulation is termed mobilization, which represents a critical step in immunity and continuous cellular replenishment required for homeostasis of the hematopoietic system. Having validated the transcriptomic signatures of mature hematopoietic cells in the MEBM model and their capacity for physiologically relevant cell-cell signaling, the MEBM model was evaluated to determine whether it could reconstitute the complex process of mobilization in the integrated context of the vascularized hematopoietic niche. The study was specifically focused on investigating the ability of mature neutrophils differentiated from HSCs in the MEBM model to replicate rapid release of their in vivo counterparts from the bone marrow reserve during immune responses to inflammatory insults. To simulate this situation, the vasculature of the micro-engineered niche was perfused with culture media containing physiologically relevant concentrations of interleukin-8 (IL-8) during infection (5,000 μg/ml), a systemic inflammatory cytokine known to stimulate neutrophil release.
# In control experiments without IL-8, the vast majority of mature neutrophils identified by their expression of CD66b were retained in the perivascular space. […] Intravascular translocation of these cells occurred rapidly, within one hour of treatment, consistent with the time scale over which neutrophils are mobilized from the native marrow in an inflammatory setting.
# To capture the process of mobilization under the dynamic conditions of continuous vascular perfusion, a time-lapse imaging of neutrophils in the micro-engineered niche was performed at physiological flow rates (10 μl/min). In the IL-8-treated replicates, neutrophils were distributed in the perivascular region initially, but upon cytokine stimulation, a large fraction of these cells entered the neighboring blood vessels in less than 20 minutes. The intravasated cells were then quickly cleared from the observation area in the direction of flow. The cellular content of effluent collected from these devices was composed primarily of non-adherent cells characterized by multilobular nuclei and robust expression of CD66b, confirming the release of terminally differentiated mature neutrophils. During the same time period only a few neutrophils were mobilized in the control group.
# The MEBM model was also responsive to AMD3100 (Plerixafor), a CXCR4 antagonist clinically used for mobilizing HSCs and other hematopoietic cells from the bone marrow for autologous transplantation.
# Statistically analyses described above were performed as follows. Mobilization of neutrophils in response to IL-8 and AMD3100 was assessed by ordinary one-way ANOVA, with Dunnett correction employed for multiple comparisons. Marker expression (CD15 and CD66b) as compared between AMD3100- and IL-8-mobilized groups was tested by unpaired t-test. Cell populations following irradiation were compared using 2-way ANOVA with multiple comparisons testing adjusted by Dunnett correction. Mobilization following infection was compared between infected and non-infected groups by unpaired t-test. Quantities of neutrophils at inflow and outflow position were compared using Welch's t-test to account for unequal variances in the data. Comparisons between multiplexed Luminex cytokine assays were performed using multiple t-tests, corrected by the Holm-Sidak method.
# [2] = tested on: micro-engineered bone marrow (MEBM) model; test: Stimulation of erythropoiesis in the MEBM model with erythropoietin; conditions: Erythropoiesis-Specific Medium (EPO 1 ng/ml)
# Description: Having confirmed the vascularization and HSC colonization of the micro-engineered niche, the potential to deploy the MEBM model to reconstitute multilineage hematopoiesis was investigated. Considering that hematopoiesis in vivo relies on extrinsic cues to control the fate of HSCs, the hematopoietic investigation was conducted by the addition of soluble factors known to drive lineage differentiation. First, the MEBM model was treated with erythropoietin (EPO) (see “Erythropoiesis-Specific Medium” of Table 1) to stimulate erythropoiesis. […] Following this phenotypic organization, the MEBM model produced a substantial number of round, erythroid cells that were distinguishable by their red color and expression of transferrin receptor (i.e., CD71) and glycophorin A. The micro-engineered niche also supported the differentiation of HSCs into myeloid cells. Stimulation of the MEBM model with myelopoietic media (see Table 1) for 21 days produced a marrow construct densely packed with cells of myeloid lineages, most of which were situated proximate the vasculature. A significant number of the cells were terminally differentiated mature neutrophils as identified by their multisegmented nuclei, intracellular secretory granules, and surface marker expression (CD15+/CD66b+).
# mobilized neutrophils = test: Boyden chamber migration assay: chemotaxis of mobilized neutrophils in a gradient of IL-8; conditions: over a period of an hour
# Description: For further investigation, a Boyden chamber migration assay was conducted to measure chemotaxis of mobilized neutrophils in a gradient of IL-8 as a representative endpoint of their functional capacity. […] It was noted that the transmigrated cells in the lower chamber clumped together to form multicellular aggregates, reminiscent of neutrophil swarming in vivo that plays an important functional role in antimicrobial activities of neutrophils.
# [3] = image cytometry of CD15 and CD66b staining, cells released by AMD3100
compound,measurement,setting,value
"c1cc(CN2CCCNCCNCCCNCC2)ccc1CN1CCCNCCNCCCNCC1 [AMD3100, Plerixafor, reference compound]",rate of mobilization compared with the IL-8-treated model,[1]; AMD3100 25 μg/ml,lower than that in the IL-8-treated model
same,neutrophils among the released cells of myeloid lineage,[1]; [3],56%
same,released cells of myeloid lineage,[1]; [3],approximately 65%
same,increase in the rate at which cells were released from the device,"[1]; perfused with clinical dose 25 μg/ml, in comparison to untreated controls",more than fivefold
EPO: soluble factor added to stimulate erythropoiesis,effect of EPO addition on the micro-engineered niche,[2],formation of multicellular complexes
IL-8: a systemic inflammatory cytokine known to stimulate neutrophil release,mature neutrophils in the population of released cells,"[1]; IL-8-induced mobilization, image cytometry",76%
same,egress of CD66b+ cells from the stromal compartment into the vascular lumen,"[1]; IL-8 infused through the vasculature (5,000 μg/ml), compared with control without IL-8",substantial egress of CD66b+ cells
same,time until a large fraction of neutrophils entered the neighboring blood vessels,"[1]; time-lapse imaging, continuous vascular perfusion at 10 μl/min, upon cytokine stimulation",less than 20 minutes
same,cells that moved across the membrane,mobilized neutrophils,~80%
